Values quoted from earlier work, collected in US20220370466A1, “REGIMENS FOR TREATING HIV INFECTIONS AND AIDS” (ViiV Healthcare Company, priority 2017, published 2022).
Like-named read-outs stand apart in the source and are kept apart here. Values belong to the compound of their own block, whether it stands above or below them.

Key:
CYP3A4 [1] = biological target: T1, CYP3A4 (Homo sapiens, UniProt P08684)
UGT1A1 = biological target: T2, UGT1A1 (Homo sapiens, UniProt P22309)
T2 sequence (P22309 26-533): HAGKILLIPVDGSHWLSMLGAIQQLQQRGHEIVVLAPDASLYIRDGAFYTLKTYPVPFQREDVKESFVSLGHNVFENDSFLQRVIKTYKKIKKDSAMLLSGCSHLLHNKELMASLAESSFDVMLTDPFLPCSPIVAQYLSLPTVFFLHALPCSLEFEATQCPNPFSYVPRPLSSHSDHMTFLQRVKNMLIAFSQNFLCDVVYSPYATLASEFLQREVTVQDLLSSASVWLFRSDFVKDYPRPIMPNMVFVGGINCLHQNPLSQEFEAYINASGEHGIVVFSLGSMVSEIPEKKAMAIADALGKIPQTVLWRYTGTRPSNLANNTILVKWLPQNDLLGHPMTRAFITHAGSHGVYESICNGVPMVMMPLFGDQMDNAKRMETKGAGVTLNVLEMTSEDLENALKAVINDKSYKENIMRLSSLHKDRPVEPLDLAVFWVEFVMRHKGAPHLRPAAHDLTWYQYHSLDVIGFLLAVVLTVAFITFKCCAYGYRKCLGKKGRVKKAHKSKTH

UGT1A3 = biological target: T3, UGT1A3 (Homo sapiens, UniProt P35503); settings: in vitro
T3 sequence (P35503 29-534): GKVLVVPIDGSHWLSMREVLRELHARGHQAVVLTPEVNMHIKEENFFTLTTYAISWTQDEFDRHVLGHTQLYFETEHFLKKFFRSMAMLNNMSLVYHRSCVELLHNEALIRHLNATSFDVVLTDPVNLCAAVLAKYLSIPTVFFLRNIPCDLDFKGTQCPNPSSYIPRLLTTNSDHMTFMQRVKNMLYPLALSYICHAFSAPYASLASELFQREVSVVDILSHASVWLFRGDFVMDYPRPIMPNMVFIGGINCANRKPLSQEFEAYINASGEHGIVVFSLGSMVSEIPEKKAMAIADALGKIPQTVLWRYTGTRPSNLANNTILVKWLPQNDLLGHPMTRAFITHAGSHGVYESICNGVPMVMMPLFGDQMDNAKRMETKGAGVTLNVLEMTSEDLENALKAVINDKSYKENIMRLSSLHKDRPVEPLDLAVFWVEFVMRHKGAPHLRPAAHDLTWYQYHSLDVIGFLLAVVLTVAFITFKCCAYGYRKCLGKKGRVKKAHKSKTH

UGT1A9 = biological target: T4, UGT1A9 (Homo sapiens, UniProt O60656); settings: in vitro
T4 sequence (O60656 26-530): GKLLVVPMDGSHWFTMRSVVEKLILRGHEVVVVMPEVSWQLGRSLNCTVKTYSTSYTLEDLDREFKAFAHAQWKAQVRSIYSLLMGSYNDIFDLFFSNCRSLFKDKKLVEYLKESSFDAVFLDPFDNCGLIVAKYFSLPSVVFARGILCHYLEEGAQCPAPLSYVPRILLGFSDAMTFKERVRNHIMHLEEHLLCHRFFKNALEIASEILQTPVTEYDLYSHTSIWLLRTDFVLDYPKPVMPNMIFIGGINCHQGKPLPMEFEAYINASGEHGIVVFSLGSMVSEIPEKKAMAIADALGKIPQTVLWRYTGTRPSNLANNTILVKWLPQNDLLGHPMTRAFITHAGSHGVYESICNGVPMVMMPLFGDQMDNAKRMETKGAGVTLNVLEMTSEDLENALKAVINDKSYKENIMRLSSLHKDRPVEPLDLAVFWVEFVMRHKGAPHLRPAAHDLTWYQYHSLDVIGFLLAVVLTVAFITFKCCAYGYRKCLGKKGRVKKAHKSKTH

BCRP = biological target: T5, BCRP (Homo sapiens, UniProt Q9UNQ0); settings: in vitro
T5 sequence (Q9UNQ0 1-655): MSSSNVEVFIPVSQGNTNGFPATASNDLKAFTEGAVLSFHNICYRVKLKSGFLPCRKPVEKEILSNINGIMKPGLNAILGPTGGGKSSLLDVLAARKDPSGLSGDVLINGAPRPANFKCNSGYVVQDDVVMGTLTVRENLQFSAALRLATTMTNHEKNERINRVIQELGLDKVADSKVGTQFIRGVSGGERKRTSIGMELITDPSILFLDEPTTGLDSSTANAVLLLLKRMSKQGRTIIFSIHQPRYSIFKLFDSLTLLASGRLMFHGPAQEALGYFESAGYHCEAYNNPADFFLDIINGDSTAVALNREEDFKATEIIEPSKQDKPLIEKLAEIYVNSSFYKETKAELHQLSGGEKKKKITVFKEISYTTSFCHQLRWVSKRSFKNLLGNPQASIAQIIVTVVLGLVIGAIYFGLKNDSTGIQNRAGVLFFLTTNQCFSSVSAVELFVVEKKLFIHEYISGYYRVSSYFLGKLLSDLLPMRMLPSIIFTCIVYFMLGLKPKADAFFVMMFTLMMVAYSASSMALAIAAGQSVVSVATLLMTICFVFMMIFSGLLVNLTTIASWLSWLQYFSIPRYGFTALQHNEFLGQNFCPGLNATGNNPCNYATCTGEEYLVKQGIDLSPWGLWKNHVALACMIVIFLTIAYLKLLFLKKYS

P-gp = P-gp (Homo sapiens, UniProt P08183); settings: in vitro
Chain of P-gp (P08183 whole entry): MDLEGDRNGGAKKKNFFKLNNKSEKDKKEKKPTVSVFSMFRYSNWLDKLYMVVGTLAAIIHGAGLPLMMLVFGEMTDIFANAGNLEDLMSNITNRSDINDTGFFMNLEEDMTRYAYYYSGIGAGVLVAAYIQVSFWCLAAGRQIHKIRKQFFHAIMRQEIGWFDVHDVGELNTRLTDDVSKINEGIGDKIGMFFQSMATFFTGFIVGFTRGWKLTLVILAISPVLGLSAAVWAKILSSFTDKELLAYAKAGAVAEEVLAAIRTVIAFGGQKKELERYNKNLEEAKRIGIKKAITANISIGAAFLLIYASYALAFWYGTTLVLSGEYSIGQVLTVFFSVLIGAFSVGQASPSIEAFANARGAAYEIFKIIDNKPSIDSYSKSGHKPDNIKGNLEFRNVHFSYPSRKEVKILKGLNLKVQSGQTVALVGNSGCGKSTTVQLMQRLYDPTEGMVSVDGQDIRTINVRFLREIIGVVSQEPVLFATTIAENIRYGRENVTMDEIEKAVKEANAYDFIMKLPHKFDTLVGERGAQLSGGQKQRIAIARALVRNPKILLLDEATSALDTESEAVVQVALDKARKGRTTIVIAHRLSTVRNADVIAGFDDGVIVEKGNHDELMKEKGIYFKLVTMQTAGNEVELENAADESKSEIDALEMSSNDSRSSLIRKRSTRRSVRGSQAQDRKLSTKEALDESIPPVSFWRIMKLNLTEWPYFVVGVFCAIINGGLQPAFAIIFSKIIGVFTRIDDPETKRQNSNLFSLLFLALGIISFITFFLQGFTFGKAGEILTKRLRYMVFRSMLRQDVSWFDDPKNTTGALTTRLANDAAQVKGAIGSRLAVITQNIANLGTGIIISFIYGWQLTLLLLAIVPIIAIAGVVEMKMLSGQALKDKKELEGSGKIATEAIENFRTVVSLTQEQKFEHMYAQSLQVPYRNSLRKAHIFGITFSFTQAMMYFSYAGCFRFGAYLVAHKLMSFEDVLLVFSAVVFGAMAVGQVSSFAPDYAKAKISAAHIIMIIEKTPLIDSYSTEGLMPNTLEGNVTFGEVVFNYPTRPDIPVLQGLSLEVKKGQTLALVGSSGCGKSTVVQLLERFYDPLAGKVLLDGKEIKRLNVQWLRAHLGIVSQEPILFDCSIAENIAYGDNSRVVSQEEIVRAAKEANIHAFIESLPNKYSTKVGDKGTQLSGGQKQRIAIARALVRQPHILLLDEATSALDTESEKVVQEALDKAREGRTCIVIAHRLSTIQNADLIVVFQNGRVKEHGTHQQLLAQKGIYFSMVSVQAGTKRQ

CYP3A4 [2] = biological target: T1, CYP3A4; remark: listed apart in the source
[3] = tested on: cytochrome P450 (CYP) isozymes
HIV-1 = settings: lymphoblastoid cell lines, MAGI-CCR5 cell line, peripheral blood mononuclear cells
HIV [4] = settings: CD4+ T-cells isolated from thirteen (13) persons
HIV [5] = settings: monocyte-derived macrophages (MDMs)

T1 sequence (P08684 whole entry): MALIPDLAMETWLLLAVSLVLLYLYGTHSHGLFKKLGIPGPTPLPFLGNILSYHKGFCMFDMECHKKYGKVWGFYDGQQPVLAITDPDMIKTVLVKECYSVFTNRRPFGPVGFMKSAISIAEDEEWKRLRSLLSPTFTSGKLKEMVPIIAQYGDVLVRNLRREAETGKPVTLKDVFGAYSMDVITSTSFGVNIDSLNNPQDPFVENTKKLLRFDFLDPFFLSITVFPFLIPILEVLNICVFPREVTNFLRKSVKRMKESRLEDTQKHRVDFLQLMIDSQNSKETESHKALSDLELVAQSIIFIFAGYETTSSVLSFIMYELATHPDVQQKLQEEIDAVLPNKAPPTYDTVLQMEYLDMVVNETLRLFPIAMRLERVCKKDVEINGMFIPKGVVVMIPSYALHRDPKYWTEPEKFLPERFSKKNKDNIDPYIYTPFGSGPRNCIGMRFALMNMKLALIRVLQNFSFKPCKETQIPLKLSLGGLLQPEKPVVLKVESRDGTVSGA

- metabolic clearance through CYP3A4 (CYP3A4 [1]): metabolically cleared
- metabolic clearance through UGT1A1 (UGT1A1): metabolically cleared
- substrate of UGT1A3 (UGT1A3): substrate
- substrate of UGT1A9 (UGT1A9): substrate
- substrate of BCRP (BCRP): substrate
- substrate of P-gp (P-gp): substrate
SMILES: O=C(NCc1c(F)cc(F)cc1F)c1cn2c(c(O)c1=O)C(=O)N1[C@H]3CC[C@H](C3)O[C@@H]1C2 [Bictegravir, (2R,5S,13aR)-8-hidroxi-7,9-dioxo-N-[(2,4,6-trifluorofenil)metil]-2,3,4,5,7,9,13,13a-octahidro-2,5-metanopirido[1′,2′: 4,5]pirazino[2,1-b][1,3]oxazepina-10-carboxamida]

- extent to which the drug is a substrate of CYP3A4 (CYP3A4 [2]): about 15%
- induction or inhibition of cytochrome P450 (CYP) isozymes [3]: demonstrates induction or inhibition
SMILES: C[C@@H]1CCO[C@H]2Cn3cc(C(=O)NCc4ccc(F)cc4F)c(=O)c(O)c3C(=O)N12 [Dolutegravir, (4R,12a5)-N-[(2,4-difluorophenyl)methyl]-7-hydroxy-4-methyl-6,8-dioxo-3 ,4,12,12a-tetrahydro-2H-pyrido[5, 6]pyrazino[2,6-b][1,3]oxazine-9-carboxamide]

SMILES: Nc1nc(=O)n([C@@H]2CS[C@H](CO)O2)cc1F [Emtricitabine, 5-fluoro-1-(2R,5S)-[2-(hydroxymethyl)-1,3oxathiolan-5-yl]cytosine]
- EC50 value against HIV-1 (HIV-1): 3 to 158 ng/mL
- EC50 (HIV-1; read-out: EC50 value against HIV-1): 1.3 to 640 nM

SMILES: CC(C)OC(=O)[C@H](C)N[P@](=O)(CO[C@H](C)Cn1cnc2c(N)ncnc21)Oc1ccccc1 [TAF, L-alanine, N-[(S)-[[(1R)-2-(6-amino-9H-purin-9-yl)-1methylethoxy]methyl]phenoxyphosphinyl]-, 1-methylethyl ester, (2E)-2-butenedioate (2:1)]
- EC50 (HIV [4]; read-out: mean EC50): 11 nM
- EC50 (HIV [4]; read-out: median EC50): 10.2 nM
- EC50 (HIV [5]; read-out: mean EC50): 9.7 nM
- EC50 (HIV [5]; read-out: median EC50): 10.3 nM
